Assay results from patent US6905706B2, “Medicinal herbal extract carpediol for treating depression” (Swedish Herbal Institute, priority 2002, dated 2005).
Where “and” joins values, the source holds several entries; their conditions need not be identical. Equal entries are not always repeated.

Assay: Effect of co-administered extracts on the pharmacokinetics of theophylline in rats
Method: Carpediol spissum (Batch No Ex 20404); Swedish Herbal Institute, Gothenburg, Sweden) as described above in Example 1. […] It was analyzed for purity by HPLC, Capillary electrophoresis, ^1H-NMR and ^13C-NMR. • (e) Internal standard: Methyl-4-hydroxybenzoate 99%, F.W. 152.15 Aldrich. • (f) Water, demonized and distilled. • (g) Water for High Performance Capillary Electrophoresis (HPCE), HEWLETT-PACKARD. • (h) Buffer pH=9.3 for HPCE (50 mM Borate). • (i) 0.1N Sodium Hydroxide Solution for HPCE. • (j) Chloroform HPLC grade. • (k) 2-Propanol spectrophotometric grade. • (l) Methanol Chromasorv.
Animals—In this study, 144 time-mated male Wistar rats were used. Breeder: Institute of Fine Organic Chemistry of the National Academy of Science, Yerevan. The initial weight of the animals: 130-170 g (mean weight 149.93±12.4 g). […] All animals were clinically examined upon arrival and any animal showing signs of abnormality or disease was excluded. Animals considered unsuitable for the study were replaced before the start. No animal was replaced following the start of the study.
Dosage and Administration—An appropriate amount of herbal extract was dissolved in distilled water and given at 10:00-10:30 am by oral gavage. Suspensions were shaken gently before oral administration. Suspensions were prepared fresh every day. Control animals were given an appropriate volume of drinking water. Blood samples from rats receiving the carrier only were also analyzed.
Groups of six animals were treated orally with water (10 ml×2 times per day) for three days. 60 minutes after last administration of water, a solution of Aminophylline (10 ml/kg) was given to each animal in dose of 240 mg/kg (corresponding to 192 mg/kg of Theophylline) and blood samples were taken 0.25, 0.5, 1.0, 2.0, 4.0, 6.0 and 8.0 hours after the theophylline administration. A separate group of animals was used for each time point.
It was administered orally in a volume of 10 ml/kg of body weight. Freshly prepared extract was administered two times daily for 3 consecutive days. Single dose—25 mg/kg, daily dose—50 mg/kg. 60 minutes after last administration, a water solution of Aminophylline (10 ml/kg) was given to each animal in dose of 240 mg/kg (corresponding to 192 mg/kg of Theophylline) and blood samples were taken 0.25, 0.5, 1.0, 2.0, 4.0, 6.0 and 8.0 hours after the theophylline administration. A separate group of animals was used for each time point.
One tablet of Jarsin 300 was suspended in 10 ml of water and administered two times daily for 3 consecutive days. 60 minutes after last administration, water solution of Aminophylline (10 ml/kg) was given to each animal in dose of 240 mg/kg (corresponding to 192 mg/kg of Theophylline) and blood samples were taken 0.25, 0.5, 1.0, 2.0, 4.0, 6.0 and 8.0 hours after the theophylline administration. A separate group of animals was used for each time point.
Sampling of blood and sample preparation—Animals were sacrificed by laboratory guillotine. Following decapitation, blood was collected separately in centrifuge tubes and centrifuged at 3000 rpm for 10 min. Blood serum was separated and 50 μl was taken for theophylline assay. Conservation of the samples: the centrifuge tubes were closed with caps, frozen and stored in a freezer for 1-3 days prior to bio-assay.
Analytical Method: Capillary Electrophoresis—A modified capillary electrophoresis method was used, using an internal standard and as a mobile phase 50 mM borate buffer (pH 9.3) without SDS.
Pre-assay preparation—The Ramzan et al. method (52) of extraction of theophylline from serum was modified as follows. 50 μl of blood serum was added to 10 μl of an internal standard methanol solution (methyl-paraben, 60 μg/ml) in centrifuge tube to obtain final concentration of methyl paraben 10 μg/ml. The solution was vortexed vigorously for 10 sec and 1 ml of solvent system of isopropanol. and chloroform in a 5:95 ratio was added for extraction.

[1] = Group 1 (water control), rats, calculated by mean concentrations
[2] = Group 1 (water control), rats, mean of 6 series (column A)
[3] = Group 2 (CRE pretreatment), rats, calculated by mean concentrations
[4] = Group 2 (CRE pretreatment), rats, mean of 6 series (column A)
[5] = Group 3 (Jarsin 300 pretreatment), rats, calculated by mean concentrations
[6] = Group 3 (Jarsin 300 pretreatment), rats, mean of 6 series (column A)

Cn1c(=O)c2[nH]cnc2n(C)c1=O [Theophylline, 1,3-dimethylxantin]
Concentration of Theophylline in Rat Serum (Group 1 (water control), aminophylline 240 mg/kg p.o., 15 min, single rat): 181.11 µg/mL and 172.059 µg/mL and 225.306 µg/mL and 153.35 µg/mL and 146.67 µg/mL and 101.82 µg/mL | Concentration of Theophylline in Rat Serum (Group 1 (water control), aminophylline 240 mg/kg p.o., 30 min, single rat): 135.41 µg/mL and 89.49 µg/mL and 50.10 µg/mL and 143.18 µg/mL and 337.56 µg/mL and 101.83 µg/mL | Concentration of Theophylline in Rat Serum (Group 1 (water control), aminophylline 240 mg/kg p.o., 60 min, single rat): 138.11 µg/mL and 194.27 µg/mL and 255.06 µg/mL and 154.77 µg/mL and 231.79 µg/mL and 86.37 µg/mL | Concentration of Theophylline in Rat Serum (Group 1 (water control), aminophylline 240 mg/kg p.o., 120 min, single rat): 57.30 µg/mL and 71.98 µg/mL and 61.23 µg/mL and 97.22 µg/mL and 56.61 µg/mL | Concentration of Theophylline in Rat Serum (Group 1 (water control), aminophylline 240 mg/kg p.o., 240 min, single rat): 77.66 µg/mL and 94.86 µg/mL and 114.84 µg/mL and 61.03 µg/mL and 105.31 µg/mL and 169.15 µg/mL | Concentration of Theophylline in Rat Serum (Group 1 (water control), aminophylline 240 mg/kg p.o., 360 min, single rat): 43.95 µg/mL and 42.46 µg/mL and 73.58 µg/mL and 77.92 µg/mL and 81.94 µg/mL and 31.38 µg/mL | Concentration of Theophylline in Rat Serum (Group 1 (water control), aminophylline 240 mg/kg p.o., 480 min, single rat): 22.05 µg/mL and 69.25 µg/mL and 63.68 µg/mL and 44.98 µg/mL and 89.99 µg/mL and 16.09 µg/mL | Clt of Theophylline [1]: 0.4642 mL/min | Kel of Theophylline [1]: 0.149 h⁻¹ | Vd of Theophylline [1]: 0.1871 L | Clt of Theophylline, Mean [2]: 0.4973 mL/min and 0.497 ± 0.055 mL/min | Cmax of Theophylline, Mean [2]: 195.2 ± 32.9 µg/mL | Kel of Theophylline, Mean [2]: 0.1638 h⁻¹ and 0.164 ± 0.02 h⁻¹ | MRT of Theophylline, Mean [2]: 6.6239 ± 0.70 h | Vd of Theophylline, Mean [2]: 0.186 ± 0.015 L | t1/2 of Theophylline, Mean [2]: 4.504 ± 0.47 h | Clt of Theophylline (Group 1 (water control), rats, single series): 0.441 mL/min and 0.3881 mL/min and 0.4945 mL/min and 0.3453 mL/min and 0.6439 mL/min and 0.671 mL/min | Concentration of Theophylline in Rat Serum (Group 2 (CRE pretreatment 3 days), aminophylline 240 mg/kg p.o., 15 min, single rat): 192.873 µg/mL and 144.71 µg/mL and 164.57 µg/mL and 161.40 µg/mL and 98.74 µg/mL and 8.06 µg/mL | Concentration of Theophylline in Rat Serum (Group 2 (CRE pretreatment 3 days), aminophylline 240 mg/kg p.o., 30 min, single rat): 190.52 µg/mL and 145.07 µg/mL and 223.28 µg/mL and 30.54 µg/mL and 154.41 µg/mL and 81.52 µg/mL | Concentration of Theophylline in Rat Serum (Group 2 (CRE pretreatment 3 days), aminophylline 240 mg/kg p.o., 60 min, single rat): 158.01 µg/mL and 189.11 µg/mL and 120.37 µg/mL and 158.89 µg/mL and 119.72 µg/mL | Concentration of Theophylline in Rat Serum (Group 2 (CRE pretreatment 3 days), aminophylline 240 mg/kg p.o., 120 min, single rat): 205.63 µg/mL and 140.04 µg/mL and 180.859 µg/mL and 96.55 µg/mL and 68.74 µg/mL and 91.30 µg/mL | Concentration of Theophylline in Rat Serum (Group 2 (CRE pretreatment 3 days), aminophylline 240 mg/kg p.o., 240 min, single rat): 89.87 µg/mL and 65.03 µg/mL and 61.82 µg/mL and 134.64 µg/mL and 148.86 µg/mL and 115.97 µg/mL | Concentration of Theophylline in Rat Serum (Group 2 (CRE pretreatment 3 days), aminophylline 240 mg/kg p.o., 360 min, single rat): 35.31 µg/mL and 7.61 µg/mL and 20.21 µg/mL and 233.16 µg/mL and 91.61 µg/mL and 38.01 µg/mL | Concentration of Theophylline in Rat Serum (Group 2 (CRE pretreatment 3 days), aminophylline 240 mg/kg p.o., 480 min, single rat): 7.16 µg/mL and 34.98 µg/mL and 45.36 µg/mL and 56.71 µg/mL and 33.96 µg/mL and 12.51 µg/mL | Clt of Theophylline [3]: 0.502 mL/min | Kel of Theophylline [3]: 0.2042 h⁻¹ | Vd of Theophylline [3]: 0.1475 L | Clt of Theophylline, Mean [4]: 0.5670 mL/min and 0.567 ± 0.067 mL/min | Kel of Theophylline, Mean [4]: 0.2706 h⁻¹ and 0.271 ± 0.035 h⁻¹ | Vd of Theophylline, Mean [4]: 0.130 ± 0.014 L | Cmax of Theophylline (Group 2 (CRE pretreatment), rats, single series): 223.3 µg/mL and 161.4 µg/mL and 158.9 µg/mL and 119.7 µg/mL and 192.9 µg/mL | Concentration of Theophylline in Rat Serum (Group 3 (Jarsin 300 pretreatment 3 days), aminophylline 240 mg/kg p.o., 15 min, single rat): 4.86 µg/mL and 5.81 µg/mL | Concentration of Theophylline in Rat Serum (Group 3 (Jarsin 300 pretreatment 3 days), aminophylline 240 mg/kg p.o., 30 min, single rat): 25.01 µg/mL and 34.73 µg/mL and 27.80 µg/mL | Concentration of Theophylline in Rat Serum (Group 3 (Jarsin 300 pretreatment 3 days), aminophylline 240 mg/kg p.o., 60 min, single rat): 23.33 µg/mL and 30.97 µg/mL and 34.52 µg/mL | Concentration of Theophylline in Rat Serum (Group 3 (Jarsin 300 pretreatment 3 days), aminophylline 240 mg/kg p.o., 120 min, single rat): 16.13 µg/mL and 44.11 µg/mL and 20.84 µg/mL | Concentration of Theophylline in Rat Serum (Group 3 (Jarsin 300 pretreatment 3 days), aminophylline 240 mg/kg p.o., 240 min, single rat): 4.46 µg/mL and 16.77 µg/mL and 19.04 µg/mL | Concentration of Theophylline in Rat Serum (Group 3 (Jarsin 300 pretreatment 3 days), aminophylline 240 mg/kg p.o., 360 min, single rat): 5.85 µg/mL and 11.58 µg/mL | Concentration of Theophylline in Rat Serum (Group 3 (Jarsin 300 pretreatment 3 days), aminophylline 240 mg/kg p.o., 480 min, single rat): 2.34 µg/mL and 5.71 µg/mL | Clt of Theophylline [5]: 2.310 mL/min | Kel of Theophylline [5]: 0.2022 h⁻¹ | Vd of Theophylline [5]: 0.6853 L | Clt of Theophylline, Mean [6]: 2.671 mL/min and 2.671 ± 0.637 mL/min | Kel of Theophylline, Mean [6]: 0.2204 h⁻¹ and 0.220 ± 0.033 h⁻¹ | Vd of Theophylline, Mean [6]: 0.722 ± 0.091 L | Cmax (male, Wistar, rat, in vivo, 240 mg/kg, Cmax of Theophylline, Group 1 (water control), rats, calculated by mean concentrations, 60 minutes): 177 µg/mL | concentration at 120 min (male, Wistar, rat, in vivo, 240 mg/kg, Concentration of Theophylline in Rat Serum, Group 1 (water control), aminophylline 240 mg/kg p.o., 120 min, single rat): 96.3 µg/mL | concentration at 15 min (male, Wistar, rat, in vivo, 240 mg/kg, Concentration of Theophylline in Rat Serum, Mean, Group 1 (water control), aminophylline 240 mg/kg p.o., 15 min, mean n=6): 163 µg/mL | concentration at 30 min (male, Wistar, rat, in vivo, 240 mg/kg, Concentration of Theophylline in Rat Serum, Mean, Group 1 (water control), aminophylline 240 mg/kg p.o., 30 min, mean n=6): 143 µg/mL | concentration at 60 min (male, Wistar, rat, in vivo, 240 mg/kg, Concentration of Theophylline in Rat Serum, Mean, Group 1 (water control), aminophylline 240 mg/kg p.o., 60 min, mean n=6): 177 µg/mL | concentration at 120 min (male, Wistar, rat, in vivo, 240 mg/kg, Concentration of Theophylline in Rat Serum, Mean, Group 1 (water control), aminophylline 240 mg/kg p.o., 120 min, mean n=6): 73.4 µg/mL | concentration at 240 min (male, Wistar, rat, in vivo, 240 mg/kg, Concentration of Theophylline in Rat Serum, Mean, Group 1 (water control), aminophylline 240 mg/kg p.o., 240 min, mean n=6): 104 µg/mL | concentration at 360 min (male, Wistar, rat, in vivo, 240 mg/kg, Concentration of Theophylline in Rat Serum, Mean, Group 1 (water control), aminophylline 240 mg/kg p.o., 360 min, mean n=6): 58.5 µg/mL | concentration at 480 min (male, Wistar, rat, in vivo, 240 mg/kg, Concentration of Theophylline in Rat Serum, Mean, Group 1 (water control), aminophylline 240 mg/kg p.o., 480 min, mean n=6): 51 µg/mL
